Source: US20250186437A1, “CARBOLINE COMPOUNDS AND USE THEREOF” (PTC Therapeutics, Inc., priority 2021, published 2025)
pIC50: −log10 of the molar value.

tested on: MOLM-13 cells; experiment: MOLM-13 Cell Proliferation Assay (indicator of DHODH inhibition); assay type: cell-based; settings: Homo sapiens, 72 Hours of culture, CellTiter-Glo, no uridine
Protocol: The following assay was conducted to measure proliferation of MOLM-13 cells in the presence of each compound studied. This assay was included as an indicator of DHODH inhibition, as growth of MOLM-13 cells is known to depend on synthesis of pyrimidines using the de novo pathway, which can be blocked by inhibition of DHODH. • 1. MOLM-13 cells were cultured in RPMI 1640 medium+10% Fetal Bovine Serum (FBS). Only low passage cells (<20) were used for the compound tests • 2. On day 1, Log-phase growing Molm-13 Cells were counted and diluted to 10^5 cells/mL in RPMI 1640 medium+10% FBS • 3. 100 μL of diluted MOLM-13 cells in 96 well white plates were seeded, for a final density of 10^4 cells/well. • 4. 0.5 μL of pre-diluted 200× compounds or DMSO control was added to each well. The final DMSO concentration was 0.5%. • 5. After 72 Hours of culture at 37° C., 5% CO2, the plates were taken out and cooled to RT, then 50 μL CellTiter-Glo® (Promega) was added, and the composition was mixed at RT for 10 minutes. • 6. The plates were then read by ViewLux (Speed-fast, Gain-High, Bining-1X, 5 seconds).

Row | pIC50 | SMILES
1 | 7.67 | Fc1ccc(C2c3[nH]c4ccc(Cl)c(F)c4c3CCN2c2ncc(Cl)cn2)cc1 (stereo not shown) [Compound 49, 6-chloro-2-(5-chloropyrimidin-2-yl)-5-fluoro-1-(4-fluorophenyl)-2,3,4,9-tetrahydro-1H-pyrido[3,4-b]indole]
2 | 7.61 | CC(C)c1ccc(C2c3[nH]c4cc(F)c(Cl)cc4c3CCN2c2ncc(F)cn2)cc1 (stereo not shown) [Compound 50, 6-chloro-7-fluoro-2-(5-fluoropyrimidin-2-yl)-1-[4-(propan-2-yl)phenyl]-2,3,4,9-tetrahydro-1H-pyrido[3,4-b]indole]
3 | 7.67 | Fc1ccc(C2c3[nH]c4ccc(Cl)c(F)c4c3CCN2c2ncc(F)cn2)cc1 (stereo not shown) [Compound 51, 6-chloro-5-fluoro-1-(4-fluorophenyl)-2-(5-fluoropyrimidin-2-yl)-2,3,4,9-tetrahydro-1H-pyrido[3,4-b]indole]
4 | 7.59 | N#Cc1ccc(C2c3[nH]c4ccc(Cl)c(F)c4c3CCN2c2ncc(Cl)cn2)cc1 (stereo not shown) [Compound 52, 4-[6-chloro-2-(5-chloropyrimidin-2-yl)-5-fluoro-2,3,4,9-tetrahydro-1H-pyrido[3,4-b]indol-1-yl]benzonitrile]
5 | 8.11 | CC(C)c1ccc(C2c3[nH]c4cc(F)c(Cl)cc4c3CCN2c2nccc(Cl)n2)cc1 (stereo not shown) [Compound 53, 6-chloro-2-(4-chloropyrimidin-2-yl)-7-fluoro-1-[4-(propan-2-yl)phenyl]-2,3,4,9-tetrahydro-1H-pyrido[3,4-b]indole]
6 | 7.88 | CC(C)c1ccc(C2c3[nH]c4cc(F)c(Cl)cc4c3CCN2c2nccc(C#N)n2)cc1 (stereo not shown) [Compound 55, 2-{6-chloro-7-fluoro-1-[4-(propan-2-yl)phenyl]-1,3,4,9-tetrahydro-2H-pyrido[3,4-b]indol-2-yl}pyrimidine-4-carbonitrile]
7 | 7.59 | N#Cc1ccc(C2c3[nH]c4ccc(Cl)c(F)c4c3CCN2c2ncc(F)cn2)cc1 (stereo not shown) [Compound 56, 4-[6-chloro-5-fluoro-2-(5-fluoropyrimidin-2-yl)-2,3,4,9-tetrahydro-1H-pyrido[3,4-b]indol-1-yl]benzonitrile]
8 | 7.70 | CC(C)c1ccc(C2c3[nH]c4cc(F)c(Cl)cc4c3CCN2c2ncc(Cl)cn2)cc1 (stereo not shown) [Compound 57, 6-chloro-2-(5-chloropyrimidin-2-yl)-7-fluoro-1-[4-(propan-2-yl)phenyl]-2,3,4,9-tetrahydro-1H-pyrido[3,4-b]indole]
9 | 7.05 | Fc1cnc(N2CCc3c([nH]c4cc(F)c(Cl)cc34)C2c2cccc(F)c2)nc1 (stereo not shown) [Compound 58, 6-chloro-7-fluoro-1-(3-fluorophenyl)-2-(5-fluoropyrimidin-2-yl)-2,3,4,9-tetrahydro-1H-pyrido[3,4-b]indole]
10 | 7.41 | N#Cc1ccc(C2c3[nH]c4cc(F)c(Cl)cc4c3CCN2c2ncc(Cl)cn2)cc1 (stereo not shown) [Compound 59, 4-[6-chloro-2-(5-chloropyrimidin-2-yl)-7-fluoro-2,3,4,9-tetrahydro-1H-pyrido[3,4-b]indol-1-yl]benzonitrile]
11 | 8.03 | Fc1ccc(C2c3[nH]c4ccc(Cl)c(F)c4c3CCN2c2nccc(C(F)(F)F)n2)cc1 (stereo not shown) [Compound 60, 6-chloro-5-fluoro-1-(4-fluorophenyl)-2-[4-(trifluoromethyl)pyrimidin-2-yl]-2,3,4,9-tetrahydro-1H-pyrido[3,4-b]indole]
12 | 7.45 | Cc1ccnc(N2CCc3c([nH]c4cc(F)c(Cl)cc34)C2c2ccc(C#N)cc2)n1 (stereo not shown) [Compound 61, 4-[6-chloro-7-fluoro-2-(4-methylpyrimidin-2-yl)-2,3,4,9-tetrahydro-1H-pyrido[3,4-b]indol-1-yl]benzonitrile]
13 | 7.61 | Fc1c(Cl)ccc2[nH]c3c(c12)CCN(c1ncc(Cl)cn1)C3c1ccc(C(F)(F)F)cc1 (stereo not shown) [Compound 62, 6-chloro-2-(5-chloropyrimidin-2-yl)-5-fluoro-1-[4-(trifluoromethyl)phenyl]-2,3,4,9-tetrahydro-1H-pyrido[3,4-b]indole]
14 | 7.88 | Cc1ccnc(N2CCc3c([nH]c4cc(F)c(Cl)cc34)C2c2cccc(F)c2F)n1 (stereo not shown) [Compound 63, 6-chloro-1-(2,3-difluorophenyl)-7-fluoro-2-(4-methylpyrimidin-2-yl)-2,3,4,9-tetrahydro-1H-pyrido[3,4-b]indole]
15 | 7.17 | N#Cc1ccc(C2c3[nH]c4cc(F)c(Cl)cc4c3CCN2c2nccc(C#N)n2)cc1 (stereo not shown) [Compound 64, 2-[6-chloro-1-(4-cyanophenyl)-7-fluoro-1,3,4,9-tetrahydro-2H-pyrido[3,4-b]indol-2-yl]pyrimidine-4-carbonitrile]
16 | 8.01 | Cc1ccc(C2c3[nH]c4cc(F)c(Cl)cc4c3CCN2c2nc(C)cc(C)n2)cc1 (stereo not shown) [Compound 66, 6-chloro-2-(4,6-dimethylpyrimidin-2-yl)-7-fluoro-1-(4-methylphenyl)-2,3,4,9-tetrahydro-1H-pyrido[3,4-b]indole]

Row | pIC50 | SMILES
17 | 7.72 | Fc1cnc(N2CCc3c([nH]c4ccc(Cl)c(F)c34)C2c2ccc(C(F)(F)F)cc2)nc1 (stereo not shown) [Compound 67, 6-chloro-5-fluoro-2-(5-fluoropyrimidin-2-yl)-1-[4-(trifluoromethyl)phenyl]-2,3,4,9-tetrahydro-1H-pyrido[3,4-b]indole]
18 | 8.06 | N#Cc1ccnc(N2CCc3c([nH]c4cc(F)c(Cl)cc34)C2c2cccc(F)c2F)n1 (stereo not shown) [Compound 68, 2-[6-chloro-1-(2,3-difluorophenyl)-7-fluoro-1,3,4,9-tetrahydro-2H-pyrido[3,4-b]indol-2-yl]pyrimidine-4-carbonitrile]
19 | 7.97 | N#Cc1ccc(C2c3[nH]c4cc(F)c(Cl)cc4c3CCN2c2nccc(Br)n2)cc1 (stereo not shown) [Compound 69, 4-[2-(4-bromopyrimidin-2-yl)-6-chloro-7-fluoro-2,3,4,9-tetrahydro-1H-pyrido[3,4-b]indol-1-yl]benzonitrile]
20 | 8.17 | Cc1nc(N2CCc3c([nH]c4ccc(Cl)c(F)c34)C2c2ccc(Cl)cc2)ncc1F (stereo not shown) [Compound 70, 6-chloro-1-(4-chlorophenyl)-5-fluoro-2-(5-fluoro-4-methylpyrimidin-2-yl)-2,3,4,9-tetrahydro-1H-pyrido[3,4-b]indole]
21 | 7.71 | C=Cc1ccc(C2c3[nH]c4ccc(Cl)cc4c3CCN2c2ncc(F)cn2)cc1 (stereo not shown) [Compound 71, 6-chloro-1-(4-ethenylphenyl)-2-(5-fluoropyrimidin-2-yl)-2,3,4,9-tetrahydro-1H-pyrido[3,4-b]indole]
22 | 8.39 | Fc1c(Cl)ccc2[nH]c3c(c12)CCN(c1nccc(C(F)(F)F)n1)C3c1ccc(Cl)cc1 (stereo not shown) [Compound 73, 6-chloro-1-(4-chlorophenyl)-5-fluoro-2-[4-(trifluoromethyl)pyrimidin-2-yl]-2,3,4,9-tetrahydro-1H-pyrido[3,4-b]indole]
23 | 8.24 | Fc1c(Cl)ccc2[nH]c3c(c12)CCN(c1nccc(C(F)(F)F)n1)C3c1ccc(C(F)(F)F)cc1 (stereo not shown) [Compound 74, 6-chloro-5-fluoro-1-[4-(trifluoromethyl)phenyl]-2-[4-(trifluoromethyl)pyrimidin-2-yl]-2,3,4,9-tetrahydro-1H-pyrido[3,4-b]indole]
24 | 7.90 | Fc1cc2[nH]c3c(c2cc1Cl)CCN(c1nccc(C(F)(F)F)n1)C3c1ccc(C(F)(F)F)cc1 (stereo not shown) [Compound 75, 6-chloro-7-fluoro-1-[4-(trifluoromethyl)phenyl]-2-[4-(trifluoromethyl)pyrimidin-2-yl]-2,3,4,9-tetrahydro-1H-pyrido[3,4-b]indole]
25 | 8.60 | Cc1ccc(C2c3[nH]c4ccc(Cl)c(F)c4c3CCN2c2nccc(C(F)(F)F)n2)cc1 (stereo not shown) [Compound 76, 6-chloro-5-fluoro-1-(4-methylphenyl)-2-[4-(trifluoromethyl)pyrimidin-2-yl]-2,3,4,9-tetrahydro-1H-pyrido[3,4-b]indole]
26 | 8.13 | Fc1cc2[nH]c3c(c2cc1Cl)CCN(c1nccc(Cl)n1)C3c1cccc(F)c1F (stereo not shown) [Compound 77, 6-chloro-2-(4-chloropyrimidin-2-yl)-1-(2,3-difluorophenyl)-7-fluoro-2,3,4,9-tetrahydro-1H-pyrido[3,4-b]indole]
27 | 7.33 | OCc1ccc(C2c3[nH]c4cc(F)c(Cl)cc4c3CCN2c2ncc(F)cn2)cc1 (stereo not shown) [Compound 78, {4-[6-chloro-7-fluoro-2-(5-fluoropyrimidin-2-yl)-2,3,4,9-tetrahydro-1H-pyrido[3,4-b]indol-1-yl]phenyl}methanol]
28 | 7.68 | C=Cc1ccc(C2c3[nH]c4cc(F)c(Cl)cc4c3CCN2c2ncc(F)cn2)cc1 (stereo not shown) [Compound 79, 6-chloro-1-(4-ethenylphenyl)-7-fluoro-2-(5-fluoropyrimidin-2-yl)-2,3,4,9-tetrahydro-1H-pyrido[3,4-b]indole]
29 | 7.51 | Fc1cc2[nH]c3c(c2cc1Cl)CCN(c1ncc(Cl)cn1)C3c1ccc(C(F)(F)F)cc1 (stereo not shown) [Compound 80, 6-chloro-2-(5-chloropyrimidin-2-yl)-7-fluoro-1-[4-(trifluoromethyl)phenyl]-2,3,4,9-tetrahydro-1H-pyrido[3,4-b]indole]
30 | 7.40 | Cc1ccnc(N2CCc3c([nH]c4cc(F)c(Cl)cc34)C2c2ccc(C(F)(F)F)cc2)n1 (stereo not shown) [Compound 81, 6-chloro-7-fluoro-2-(4-methylpyrimidin-2-yl)-1-[4-(trifluoromethyl)phenyl]-2,3,4,9-tetrahydro-1H-pyrido[3,4-b]indole]
31 | 7.06 | Cc1ccc(C2c3[nH]c4ccc(F)c(F)c4c3CCN2c2ncc(F)cn2)cc1 (stereo not shown) [Compound 82, 5,6-difluoro-2-(5-fluoropyrimidin-2-yl)-1-(4-methylphenyl)-2,3,4,9-tetrahydro-1H-pyrido[3,4-b]indole]
